According to patent US6838580B2, “Opioid derivative” (Teikoku Seiyaku Co., Ltd., priority 2002, dated 2005):
Entries after “also recorded” stand apart in the source; their conditions may differ. Marks after values point to notes of the source that are not given here.

Tests used:
δ-opioid receptor [1] = molecular target: T1, δ-opioid receptor (Rattus norvegicus, UniProt P33533); assay: Competitive receptor binding assay, synaptic membrane fraction, [3H]DPDPE; settings: rat brain synaptic membrane, read-out: Affinity of receptor (Ki, nM) δ
T1 construct: synaptic membrane fraction obtained from the rat brain tissue; from tissue; host or cells: Sprague-Dawley rat brain without cerebellum, synaptic membrane (P2) fraction
Procedure: Regarding the opioid peptide derivatives synthesized in Examples and Reference Examples, the μ- and δ-opioid receptor affinities were obtained by a competitive receptor assay using the synaptic membrane fraction obtained from the rat brain tissue according to the known methods. That is, Sprague-Dawley rats having an average weight of 150-180 g were killed by decapitation, the brain tissue from which cerebellum had been removed was homogenized in 0.32M sucrose and 1 mM HEPES (pH 7.5) containing 50 μg/ml soybean trypsin inhibitor, fractionated and centrifuged to obtain the synaptic membrane fraction (P2 fraction), which was pre-incubated in 50 mM HEPES (pH 7.5) containing 100 mM NaCl, 0.1 mM GDP and soybean trypsin inhibitor to remove endogenous ligands from the P2 fraction.
A competitive receptor binding assay (Radiolabeled receptor assay: RRA) based on an exchange reaction between a radioactive ligand for the synaptic membrane fraction and a peptide derivative to be tested was performed by using tritium-labeled [^3H]DAGO which is a μ-opioid receptor agonist and tritium-labeled [^3H]DPDPE which has the high δ-opioid receptor selectivity, and incubating an aliquot of the synaptic membrane with the peptide derivative to be tested for a period of time. Upon this, an exchange reaction between a ligand was performed under constant conditions, the radiation remaining in the synaptic membrane fraction was measured, and an amount of the ligand adsorbed onto the synaptic membrane fraction is calculated. By assuming that binding with a receptor occurs in competition between a radioactive ligand and an end ligand, the concentration (IC50) at which the maximum specific binding of the radioactive ligand is 50% inhibited was obtained, from which the affinity constant (Ki) was calculated by a method of Cheng et al. (Biochem. Pharmcol., 22, 3099(1973)).

SD Male rats [2] = assay: Analgesic effect, Randoll-Seritto hind limb pressure method, subcutaneous administration; format: in vivo; settings: rat, s.c.
Procedure: (§1) SD Male rats, weighing 110 to 130 g, were used. One group consisted of five rats. The analgesic effects were examined by a Randoll-Seritto method. […] The threshold was expressed in mm Hg. During the measurement, the upper limit of the pressure applied to a hind limb was 100 mm Hg in order to avoid damage of the tissues.
2) When administered intravenously (i.v.), a volume of 2 ml/kg weight was administered to a tail vein and, when administered subcutaneously (s.c.), a volume of 2 ml/kg weight was subcutaneously administered to the back. In the case of intravenous administration, a 1 mg/kg, 3 mg/kg or 10 mg/kg compound of Ex.1 administration group, a 1 mg/kg, 3 mg/kg or 10 mg/kg compound of Ex.4 administration group, a 2 ml/kg physiological saline administration group and a 5 mg/kg morphine hydrochloride administration group were made, respectively. In the case of subcutaneous administration, a 10 mg/kg, 30 mg/kg or 100 mg/kg compound of Ex.1 administration group, a 10 mg/kg, 30 mg/kg or 100 mg/kg compound of Ex.4 administration group, a 2 ml/kg physiological saline administration group and a 5 mg/kg morphine hydrochloride administration group were made, respectively. Observation of the analgesic action was performed 15 minutes, 30 minutes, 1 hour and 2 hours after administration in the case of intravenous administration, 30 minutes, 1 hour, 2 hours and 3 hours after administration in the case of subcutaneous administration, respectively.
(§2) In order to perform a significant difference test between respective administration groups and control groups, and between values at respective times before administration and after administration, a Dunnet multiple comparative test method was used. In the statistical processing for performing a significant difference test between morphine hydrochloride administration groups and control groups, Student t-test was used. For performing a significant difference test between values at respective times before administration and after administration in morphine hydrochloride administration groups, a Dunnet multiple comparative test method was used. A significant level was at 5 or lower % risk rate (two-tailed test).

δ-opioid receptor [3] = molecular target: T2, δ-opioid receptor (Mus musculus, UniProt P32300); assay: Mouse seminiferous tract (MVD) assay, inhibition of electrically stimulated constriction; format: cell-based; settings: agonist activity, read-out: MVD (IC50 ± S.E.)
T2 construct: using mouse seminiferous tract in place of guinea pig ileum; from tissue; host or cells: mouse seminiferous tract (vas deferens, MVD), organ bath

SD Male rats [4] = assay: Analgesic effect, Randoll-Seritto hind limb pressure method, intracerebroventricular administration; format: in vivo; settings: rat, i.c.v.
Description: as §1
1) When performing intracerebroventricular administration (i.c.v.), a rat was fixed to a brain stereotactic fixing apparatus under slight ether anesthesia, the skin at a head was dissected, and an administration cannula was inserted into a place at a transverse of […] from a bregma position and a depth of 3.5 to 4.0 mm. The administration volume was 10 μl/animal. Observation of the analgesic action was performed before administration, and at 30 minutes, and 1, 2, 3, 4 and 5 hours after administration. Doses of both compounds were 0.1, 1 and 10 μg/animal. Separately, a group to which 5 mg/kg of naltrexone hydrochloride was administered subcutaneously immediately after compound of Ex.1 10 μg/animal i.c.v and a group to which 5 mg/kg of naltrexone hydrochloride was administered subcutaneously immediately after compound of Ex.4 10 μg/animal i.c.v. was made. In addition, as morphine hydrochloride at a dose of 3 μg/animal i.c.v. group was used as a positive control group and a physiological saline 10 μl/animal i.c.v. group as a control group was made, respectively.
as §2

T2 sequence (P32300 whole entry): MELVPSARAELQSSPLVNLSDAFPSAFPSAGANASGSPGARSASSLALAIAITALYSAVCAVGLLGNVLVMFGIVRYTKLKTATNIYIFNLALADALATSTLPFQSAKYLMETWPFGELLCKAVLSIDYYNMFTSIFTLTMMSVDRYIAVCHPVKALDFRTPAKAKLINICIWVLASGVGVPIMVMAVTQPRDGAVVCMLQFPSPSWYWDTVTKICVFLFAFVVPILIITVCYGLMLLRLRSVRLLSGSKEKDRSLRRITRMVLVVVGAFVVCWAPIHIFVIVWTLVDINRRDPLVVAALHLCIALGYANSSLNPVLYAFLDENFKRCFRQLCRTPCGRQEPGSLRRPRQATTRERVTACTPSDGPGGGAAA
T1 sequence (P33533 whole entry): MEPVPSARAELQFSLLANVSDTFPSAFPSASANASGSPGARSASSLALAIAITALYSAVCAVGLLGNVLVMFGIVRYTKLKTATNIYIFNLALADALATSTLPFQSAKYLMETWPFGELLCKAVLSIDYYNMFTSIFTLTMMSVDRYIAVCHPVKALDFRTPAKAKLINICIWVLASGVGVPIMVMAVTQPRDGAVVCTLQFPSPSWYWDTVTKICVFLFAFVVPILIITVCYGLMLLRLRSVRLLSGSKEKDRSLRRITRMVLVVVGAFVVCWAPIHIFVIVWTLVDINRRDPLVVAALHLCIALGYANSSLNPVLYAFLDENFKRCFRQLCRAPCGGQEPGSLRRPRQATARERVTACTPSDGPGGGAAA

With `Cc1cc(O)cc(C)c1C[C@H](N)C(=O)NCCCCNC(=O)[C@@H](N)Cc1c(C)cc(O)cc1C.Cl.Cl` [Ex.1, 1,4-Bis-(Dmt-amino)butane.2HCl] the Ki (δ-opioid receptor [1]) was 53.4 ± 14.8 nM, the “Change in escape reaction threshold / analgesic effect, in words” value (SD Male rats [2]; 10 mg/kg) was “tendency of an increase in the threshold was seen; also recorded: exhibited the significant analgesic effect as compared with control groups” and the “Threshold (mmHg)” value (SD Male rats [2]; 10 mg/kg, 0.5 hr) was 55 ± 5 mmHg. For the same compound, the “Threshold (mmHg)” value (SD Male rats [2]; 10 mg/kg, 1 hr) was 62 ± 6 mmHg, the “Threshold (mmHg)” value (SD Male rats [2]; 10 mg/kg, 2 hr) was 58 ± 3 mmHg and the “Threshold (mmHg)” value (SD Male rats [2]; 10 mg/kg, 3 hr) was 57 ± 2 mmHg. For the same compound, the “Threshold (mmHg)” value (SD Male rats [2]; 10 mg/kg, before administration) was 47 ± 2 mmHg, the “Change in escape reaction threshold / analgesic effect, in words” value (SD Male rats [2]; 30 mg/kg) was “significant increase in the threshold was seen 1 hour and 2 hours after administration” and the “Threshold (mmHg)” value (SD Male rats [2]; 30 mg/kg, 0.5 hr) was 52 ± 4 mmHg. The “Threshold (mmHg)” value (SD Male rats [2]; 30 mg/kg, 1 hr) was 65 ± 5^$$ mmHg, the “Threshold (mmHg)” value (SD Male rats [2]; 30 mg/kg, 2 hr) was 68 ± 3**^,$$ mmHg and the “Threshold (mmHg)” value (SD Male rats [2]; 30 mg/kg, 3 hr) was 59 ± 4 mmHg. The “Threshold (mmHg)” value (SD Male rats [2]; 30 mg/kg, before administration) was 47 ± 2 mmHg, the “Change in escape reaction threshold / analgesic effect, in words” value (SD Male rats [2]; 100 mg/kg) was “significant increase was seen at any measuring time after administration; also recorded: approximately comparative to the effect by morphine 5 mg/kg subcutaneous administration” and the “Threshold (mmHg)” value (SD Male rats [2]; 100 mg/kg, 0.5 hr) was 86 ± 2**^,$$ mmHg. For the same compound, the “Threshold (mmHg)” value (SD Male rats [2]; 100 mg/kg, 1 hr) was 77 ± 2**^,$$ mmHg, the “Threshold (mmHg)” value (SD Male rats [2]; 100 mg/kg, 2 hr) was 77 ± 2**^,$$ mmHg and the “Threshold (mmHg)” value (SD Male rats [2]; 100 mg/kg, 3 hr) was 70 ± 3**^,$$ mmHg. For the same compound, the “Threshold (mmHg)” value (SD Male rats [2]; 100 mg/kg, before administration) was 47 ± 2 mmHg, the IC50 (δ-opioid receptor [3]) was over 10 µM and the “Threshold (mmHg)” value (SD Male rats [4]; 0.1 μg/animal, 0.5 hr) was 47 ± 1 mmHg. For the same compound, the “Threshold (mmHg)” value (SD Male rats [4]; 0.1 μg/animal, 1 hr) was 50 ± 2 mmHg, the “Threshold (mmHg)” value (SD Male rats [4]; 0.1 μg/animal, 2 hr) was 50 ± 1 mmHg and the “Threshold (mmHg)” value (SD Male rats [4]; 0.1 μg/animal, 3 hr) was 48 ± 2 mmHg. For the same compound, the “Threshold (mmHg)” value (SD Male rats [4]; 0.1 μg/animal, 4 hr) was 48 ± 1 mmHg, the “Threshold (mmHg)” value (SD Male rats [4]; 0.1 μg/animal, 5 hr) was 49 ± 1 mmHg and the “Threshold (mmHg)” value (SD Male rats [4]; 0.1 μg/animal, before administration) was 47 ± 1 mmHg. For the same compound, the “Threshold (mmHg)” value (SD Male rats [4]; 1 μg/animal, 0.5 hr) was 51 ± 3 mmHg, the “Threshold (mmHg)” value (SD Male rats [4]; 1 μg/animal, 1 hr) was 54 ± 3 mmHg and the “Threshold (mmHg)” value (SD Male rats [4]; 1 μg/animal, 2 hr) was 49 ± 1 mmHg. The “Threshold (mmHg)” value (SD Male rats [4]; 1 μg/animal, 3 hr) was 49 ± 2 mmHg, the “Threshold (mmHg)” value (SD Male rats [4]; 1 μg/animal, 4 hr) was 48 ± 2 mmHg and the “Threshold (mmHg)” value (SD Male rats [4]; 1 μg/animal, 5 hr) was 47 ± 1 mmHg. The “Threshold (mmHg)” value (SD Male rats [4]; 1 μg/animal, before administration) was 47 ± 2 mmHg, the “Change in escape reaction threshold / analgesic effect, in words” value (SD Male rats [4]; 10 μg/animal) was “significant increase in the threshold was seen in the 10 μg/administration group 30 minutes and 1 hour after administration” and the “Threshold (mmHg)” value (SD Male rats [4]; 10 μg/animal + Naltrexon 5 mg/kg s.c., 0.5 hr) was 49 ± 1 mmHg. For the same compound, the “Threshold (mmHg)” value (SD Male rats [4]; 10 μg/animal + Naltrexon 5 mg/kg s.c., 1 hr) was 53 ± 3 mmHg, the “Threshold (mmHg)” value (SD Male rats [4]; 10 μg/animal + Naltrexon 5 mg/kg s.c., 2 hr) was 54 ± 2 mmHg and the “Threshold (mmHg)” value (SD Male rats [4]; 10 μg/animal + Naltrexon 5 mg/kg s.c., 3 hr) was 52 ± 2 mmHg. The “Threshold (mmHg)” value (SD Male rats [4]; 10 μg/animal + Naltrexon 5 mg/kg s.c., 4 hr) was 49 ± 1 mmHg, the “Threshold (mmHg)” value (SD Male rats [4]; 10 μg/animal + Naltrexon 5 mg/kg s.c., 5 hr) was 50 ± 1 mmHg and the “Threshold (mmHg)” value (SD Male rats [4]; 10 μg/animal + Naltrexon 5 mg/kg s.c., before administration) was 47 ± 2 mmHg. The “Change in escape reaction threshold / analgesic effect, in words” value (SD Male rats [4]; 10 μg/animal followed by naltrexone 5 mg/kg s.c.) was “dissipated by naltrexone 5 mg/kg subcutaneous administration”, the “Threshold (mmHg)” value (SD Male rats [4]; 10 μg/animal, 0.5 hr) was 61 ± 8*^,$ mmHg and the “Threshold (mmHg)” value (SD Male rats [4]; 10 μg/animal, 1 hr) was 61 ± 5**^,$ mmHg. For the same compound, the “Threshold (mmHg)” value (SD Male rats [4]; 10 μg/animal, 2 hr) was 54 ± 4 mmHg, the “Threshold (mmHg)” value (SD Male rats [4]; 10 μg/animal, 3 hr) was 51 ± 3 mmHg and the “Threshold (mmHg)” value (SD Male rats [4]; 10 μg/animal, 4 hr) was 52 ± 2 mmHg. For the same compound, the “Threshold (mmHg)” value (SD Male rats [4]; 10 μg/animal, 5 hr) was 52 ± 1 mmHg and the “Threshold (mmHg)” value (SD Male rats [4]; 10 μg/animal, before administration) was 48 ± 2 mmHg.
